Entries after “also recorded” stand apart in the source; their conditions may differ.
What was measured:
[1] = system: rice leaf lamina; design: method as in PMID 11674612; conditions: all doses studied; cited from earlier work
[2] = system: Arabidopsis thaliana L. (Columbia ecotype, Col-0) seedlings; assay: Arabidopsis root sensitivity bioassay; assay type: in vivo; conditions: for root length, mean: 7-day-old seedlings; for elongation of roots (growth-promoting activity) compared to the control: low concentrations (0.1 and 1 nM)
Protocol: Several bioassays such as the first bean internode, root growth and rice lamina inclination have been developed to evaluate the growth-promoting activity of BR derivatives. In this work, the activity of new BR analogues was evaluated using the Arabidopsis root sensitivity test because of its simplicity and high sensitivity for BRs.. The characteristic effect of exogenously applied BRs on light-grown Arabidopsis is dose-dependent—BRs in higher concentrations cause inhibition of root growth; vice versa, low concentrations are stimulating. The results obtained for 24-epiBL, which was used as a positive control, and the BR derivatives are shown in Figure 2, Figure 3 and Figure S21. […] A similar trend was shown for dimethylammonium hydrochloride 22a and morpholinium hydrochloride 22e with a long side chain. For numerical values of the average, SD and p-value, see Table S2.
The biological activity of the new BRs derivatives was tested by an Arabidopsis sensitivity bioassay which was performed according to [28]. Briefly, seedlings of Arabidopsis thaliana L. (Columbia ecotype, Col-0) were stratified for 2 days at 4 °C and germinated on vertical half-strength Murashige and Skoog (1% w/v sucrose) agar at 22 °C in a 16 h/8 h light–dark cycle. The plates contained concentrations of 24-epiBL (as positive control) and BR derivatives ranging from 0.1 to 10 nM, respectively 100 nM (for selected derivatives only). After 7 days, roots were straightened on solid media plates and scanned with an Epson high-resolution scanner. The entire root length was measured with ImageJ (http://rsbweb.nih.gov/ij/). For each treatment, more than 15 seedlings were analyzed in two biological repeats, and p-values were calculated with the two-tailed Student t-test using Excel software.
(§1) Figure 2 Effect of selected brassinosteroid derivatives on the inhibition of Arabidopsis root length. Seven-day-old Arabidopsis thaliana seedlings (Columbia ecotype, Col-0) were treated with DMSO as control/24epiBL/BR short side chain derivatives; (A)—amides, (B)—amines, (C)—ammonium hydrochlorides. For each treatment, more than 15 seedlings were analyzed in two biological repeats. Error bars represent SD. Asterisks represent significant changes (t-test); * represents p-value < 0.05, in comparison to control.
as §1, with “Figure 3” for “Figure 2”, “control/24epiBL/BR long” for “control/24epiBL/BR short”, “(A)—amides, (B)—ammonium” for “(A)—amides, (B)—amines, (C)—ammonium”
Table S2: Data for figure 2, 3, and S21. P value <0.05(t-test), comparison to control.
control (mean ± SD) 16.3 ± 1.21
*only selected compounds were tested
mean(mm) SD t-test mean (mm) SD t-test mean (mm) SD t-test mean (mm) SD t-test
(1 picture or pasted object on this page, not shown here)

[3] = Calcein AM cytotoxicity assay, MCF7; assay type: cell-based; conditions: human, MCF7 breast carcinoma cells (estrogen-sensitive), MCF7, 72 h, IC50 > 50 µM means inactive, read-out: Cytotoxic activity IC50
Protocol: (§2) The effect of the prepared BRs derivatives on the viability (in Calcein AM assays) of BJ human fibroblasts (as an example of a “normal” cell line) and human cancer cell lines of various histopathological origins, including: T-lymphoblastic leukemia CEM, breast carcinoma MCF7 and cervical carcinoma cell line HeLa, was also studied. Cells of all these lines were exposed to six 3-fold dilutions of each drug for 72 h prior to determination of cell survival. The IC50 (concentration leading to 50% inhibition of viability) values obtained from the Calcein AM cytotoxicity assay were calculated. […] All tested BR nitrogen-containing derivatives had no detectable activity, even when tested in concentrations of up to 50 µM.
(§3) The screening cell lines: T-lymphoblastic leukemia CEM; breast carcinoma MCF7 (estrogen-sensitive); cervical carcinoma cell line HeLa; and human foreskin fibroblasts BJ, were obtained from the American Type Culture Collection (Manassas, VA, USA). Cells were cultured in DMEM (Dulbecco’s Modified Eagle Medium, Sigma, St. Louis, MO, USA). Media used were supplemented with 10% fetal bovine serum, 2mM L-glutamine and 1% penicillin–streptomycin. The cell lines were maintained under standard cell culture conditions at 37 °C and 5% CO2 in a humid environment.
(§4) Cells were subcultured twice or three times a week using the standard trypsinization procedure. Cytotoxicity in cancer cell lines after 72 h was determined as described earlier. Control cultures were treated with DMSO alone, and the final concentration of DMSO in the mixture never exceeded 0.6%. Six serial 3-fold dilutions of the test substances were added at time zero in 20 μL aliquots to the microtiter plate wells and the highest final concentration in the wells was 50 μM.
(§5) Table S3: Cytotoxic activities, IC50 (µM/L)a, of compounds in three tumor and one normal fibroblast
(§6) Compound CEM MCF7 HeLa BJ
(§7) a The lowest concentration that kills 50% of cells.
(§8) b Increase of cell proliferation.

[4] = Calcein AM cytotoxicity assay, BJ; assay type: cell-based; conditions: human, BJ foreskin fibroblasts (normal cell line), IC50 > 50 µM means inactive, read-out: Cytotoxic activity IC50
Protocol: as §2, §3, §4, §5, §6, §7, §8

[5] = Calcein AM cytotoxicity assay, CEM; assay type: cell-based; conditions: human, CEM T-lymphoblastic leukemia cells, IC50 > 50 µM means inactive, read-out: Cytotoxic activity IC50
Protocol: as §2, §3, §4, §5, §6, §7, §8

[6] = Calcein AM cytotoxicity assay, HeLa; assay type: cell-based; conditions: human, HeLa cervical carcinoma cells, IC50 > 50 µM means inactive, read-out: Cytotoxic activity IC50
Protocol: as §2, §3, §4, §5, §6, §7, §8

[7] = system: T-lymphoblastic leukemia CEM; design: method as in PMID 17869317; conditions: CEM cells; positive control; cited from earlier work
[8] = 100 nM (only selected compounds), control 14.61 ± 0.85

| Compound | biological activity in rice lamina inclination [1] | root length, mean ([2]; 0.1 nM, control 16.3 ± 1.21) [mm] | root length, mean ([2]; 1 nM, control 16.3 ± 1.21) [mm] | root length, mean ([2]; 10 nM, control 16.3 ± 1.21) [mm] | IC50 at 72 h [3] [µM] | IC50 at 72 h [4] [µM] | melting point | IC50 at 72 h [5] [µM] | IC50 at 72 h [6] [µM] | root length, mean [2, 8] [mm] | elongation of roots (growth-promoting activity) compared to the control [2] | inhibitory effect on Arabidopsis root growth ([2]; tested 0.1 to 10 nM, selected derivatives also 100 nM) | IC50 [7] [µM] |
| --- | --- | --- | --- | --- | --- | --- | --- | --- | --- | --- | --- | --- | --- |
| 25-azabrassinolide | completely inactive; also recorded: no biological activity | – | – | – | – | – | – | – | – | – | – | – | – |
| C[C@H]([C@@H](O)[C@H](O)C(=O)N1CCCCC1)[C@H]1CC[C@H]2[C@@H]3CC(=O)[C@H]4C[C@H](O)[C@H](O)C[C@]4(C)[C@H]3CC[C@]12C [20d, 1-((20S,22R,23S)-2α,3α,22,23-tetrahydroxy-6-oxo-5α-cholan-24-oyl)piperidine] | – | 14.37 | 14.50 | 14.51 | > 50 | > 50 | > 200 °C (dec.) | > 50 | > 50 | – | – | – | – |
| C[C@H]([C@@H](O)[C@H](O)C(=O)N1CCOCC1)[C@H]1CC[C@H]2[C@@H]3CC(=O)[C@H]4C[C@H](O)[C@H](O)C[C@]4(C)[C@H]3CC[C@]12C [20e, 4-((20S,22R,23S)-2α,3α,22,23-tetrahydroxy-6-oxo-5α-cholan-24-oyl)morpholine] | – | 17.44 | 16.78 | 15.97 | > 50 | > 50 | > 210 °C (dec.) | > 50 | > 50 | – | – | – | – |
| C[C@H]([C@@H](O)[C@@H](O)CN(C)C)[C@H]1CC[C@H]2[C@@H]3CC(=O)[C@H]4C[C@H](O)[C@H](O)C[C@]4(C)[C@H]3CC[C@]12C.Cl [22a, N,N-dimethyl-((20S,22R,23S)-2α,3α,22,23-tetrahydroxy-6-oxo-5α-cholan-24-yl)aminium chloride] | – | 19.56 | 18.17 | 17.11 | > 50 | > 50 | > 270 °C (dec.) | > 50 | > 50 | 13.464 | interesting growth-promoting activity | – | – |
| CCN(CC)C[C@H](O)[C@H](O)[C@@H](C)[C@H]1CC[C@H]2[C@@H]3CC(=O)[C@H]4C[C@H](O)[C@H](O)C[C@]4(C)[C@H]3CC[C@]12C.Cl [22b, N,N-diethyl-((20S,22R,23S)-2α,3α,22,23-tetrahydroxy-6-oxo-5α-cholan-24-yl)aminium chloride] | – | 14.51 | 15.32 | 15.48 | > 50 | > 50 | > 250 °C (dec.) | > 50 | > 50 | 15.160 | – | the same effect only at low concentrations | – |
| C[C@H]([C@@H](O)[C@@H](O)CN1CCCC1)[C@H]1CC[C@H]2[C@@H]3CC(=O)[C@H]4C[C@H](O)[C@H](O)C[C@]4(C)[C@H]3CC[C@]12C.Cl [22c, 1-((20S,22R,23S)-2α,3α,22,23-tetrahydroxy-6-oxo-5α-cholan-24-yl)pyrrolidinium chloride] | – | 15.97 | 14.83 | 15.81 | > 50 | > 50 | > 250 °C (dec.) | > 50 | > 50 | – | – | – | – |
| C[C@H]([C@@H](O)[C@@H](O)CN1CCCCC1)[C@H]1CC[C@H]2[C@@H]3CC(=O)[C@H]4C[C@H](O)[C@H](O)C[C@]4(C)[C@H]3CC[C@]12C.Cl [22d, 1-((20S,22R,23S)-2α,3α,22,23-tetrahydroxy-6-oxo-5α-cholan-24-yl)piperidinium chloride] | – | 15.48 | 15.97 | 16.62 | > 50 | > 50 | > 250 °C (dec.) | > 50 | > 50 | – | – | – | – |
| C[C@H]([C@@H](O)[C@@H](O)CN1CCOCC1)[C@H]1CC[C@H]2[C@@H]3CC(=O)[C@H]4C[C@H](O)[C@H](O)C[C@]4(C)[C@H]3CC[C@]12C.Cl [22e, 4-((20S,22R,23S)-2α,3α,22,23-tetrahydroxy-6-oxo-5α-cholan-24-yl)morpholinium chloride] | – | 17.93 | 17.27 | 16.95 | > 50 | > 50 | > 270 °C (dec.) | > 50 | > 50 | – | interesting growth-promoting activity | – | – |
| CCC(C(C)C)C(O)C(O)C(C)C1CCC2C3CC(=O)C4CC(O)C(O)CC4(C)C3CCC12C (stereo not drawn) [28-Homocastasterone] | – | – | – | – | – | – | – | – | – | – | – | – | 13 |
